From US5084453A, “1-carboxy-1-vinyloxyimino aminothiazole cephalosporin derivatives” (priority 1988, dated 1992)
Like-named read-outs stand apart in the source and are kept apart here.

What was measured:
Test in all cases: in vitro antibacterial activity, agar plate dilution method
Type in all cases: cell-based
[1] = tested on: Ps. cepacia 23
Experimental: (§1) Now, the in vitro antibacterial activities of the compounds of the present invention against various microorganisms, were measured by the following agar plate dilution method.
(§2) One platinum loopfull of each test microorganism incubated overnight in Mueller Hinton broth, was inoculated to Mueller Hinton agar (MH agaer). Such culture media containing various antibiotics in various concentrations were prepared. After incubation at 37° C. for 16 hours, the minimum inhibitory concentrations (MIC μg/ml) were measured.

[2] = tested on: E. coli NIHJ JC2; conditions: Escherichia coli, NIHJJC2; 10^6 CFU/ml; Mueller Hinton agar, 37° C., 16 hours; read-out: MIC
Experimental: as §1, §2

[3] = tested on: E. coli GN5482*; conditions: Escherichia coli, GN5482, 16 h
Experimental: as §1, §2

[4] = tested on: S. marcescens No. 16-2*; conditions: Serratia marcescens
Experimental: as §1, §2

[5] = tested on: Ps. aeruginosa AK 109; conditions: Pseudomonas aeruginosa
Experimental: as §1, §2

[6] = tested on: K. oxytoca GN10650*; conditions: Klebsiella oxytoca, GN10650, 16 h
Experimental: as §1, §2

[7] = tested on: A. calcoaceticus No. 4; conditions: Acinetobacter calcoaceticus
Experimental: as §1, §2

[8] = tested on: K. pneumoniae No. 42*; conditions: Klebsiella pneumoniae
Experimental: as §1, §2

[9] = tested on: K. pneumoniae PC1-602; conditions: Klebsiella pneumoniae
Experimental: as §1, §2

[10] = tested on: E. cloacae 963; conditions: Enterobacter cloacae, 963, 16 h
Experimental: as §1, §2

[11] = tested on: M. morganii GN5407*; conditions: Morganella morganii
Experimental: as §1, §2

[12] = tested on: S. marcescens IAM 1184; conditions: Serratia marcescens
Experimental: as §1, §2

[13] = tested on: E. coli CSH(RE45)*; conditions: Escherichia coli; 10^6 CFU/ml; β-Lactamase-producing strain; 37° C., 16 hours; read-out: MIC
Experimental: as §1, §2

[14] = tested on: E. coli CSH2(RK1)*; conditions: Escherichia coli, 16 h
Experimental: as §1, §2

[15] = tested on: Ps. aeruginosa AKR17; conditions: Pseudomonas aeruginosa
Experimental: as §1, §2

[16] = tested on: P. vulgaris No. 33*; conditions: Proteus vulgaris
Experimental: as §1, §2

[17] = tested on: S. aureus 209P NIHJ-JC1; conditions: Staphylococcus aureus
Experimental: as §1, §2

[18] = tested on: E. cloacae Nek 39*; conditions: Enterobacter cloacae
Experimental: as §1, §2

[19] = tested on: P. vulgaris HX-19; conditions: Proteus vulgaris, HX19; 10^6 CFU/ml; Mueller Hinton agar, 37° C., 16 hours; read-out: MIC
Experimental: as §1, §2

[20] = tested on: Ps. aeruginosa IFO3445; conditions: Pseudomonas aeruginosa
Experimental: as §1, §2

[21] = NO.4, 10^6 CFU/ml, Mueller Hinton agar, 37° C., 16 hours, read-out: MIC
[22] = 10^6 CFU/ml, β-Lactamase-producing strain, 37° C., 16 hours, read-out: MIC
[23] = PC1602, 10^6 CFU/ml, Mueller Hinton agar, 37° C., 16 hours, read-out: MIC
[24] = GN5407, 10^6 CFU/ml, β-Lactamase-producing strain, 37° C., 16 hours, read-out: MIC
[25] = IAM1184, 10^6 CFU/ml, Mueller Hinton agar, 37° C., 16 hours, read-out: MIC
[26] = AKR17, 10^6 CFU/ml, Mueller Hinton agar, 37° C., 16 hours, read-out: MIC
[27] = Burkholderia cepacia, 23, 10^6 CFU/ml, Mueller Hinton agar, 37° C., 16 hours, read-out: MIC
[28] = 10^6 CFU/ml, Mueller Hinton agar, 37° C., 16 hours, read-out: MIC
[29] = AK109, 10^6 CFU/ml, Mueller Hinton agar, 37° C., 16 hours, read-out: MIC

C=C(O/N=C(\C(=O)N[C@@H]1C(=O)N2C(C(=O)O)=C(CSc3ncc(-c4ccc(O)c(O)c4)o3)CS[C@H]12)c1csc(N)n1)C(=O)O [Example 14, disodium 7β-[2-(2-aminothiazol-4-yl)-2-(1-carboxylato-1-vinyloxyimino)acetamido]-3-[5-(3,4-dihydroxyphenyl)oxazol-2-yl]thiomethyl-3-cephem-4-carboxylate (syn-isomer)]
MIC ([1]; Burkholderia cepacia, 23, 16 h): 0.0125 µg/mL | MIC [2]: 0.78 µg/mL | MIC [3]: 1.56 µg/mL | MIC ([4]; 16 h): 0.39 µg/mL | MIC ([5]; AK109, 16 h): 0.78 µg/mL | MIC [6]: 0.1 µg/mL | MIC [7, 21]: 0.2 µg/mL | MIC [8, 22]: 0.05 µg/mL | MIC [9, 23]: < 0.006 µg/mL | MIC [10]: 0.39 µg/mL | MIC [11, 24]: 0.05 µg/mL | MIC [12, 25]: 0.05 µg/mL | MIC [13]: 0.025 µg/mL | MIC [14]: 0.0125 µg/mL | MIC [15, 26]: 3.12 µg/mL | MIC ([16]; 16 h): 0.025 µg/mL | MIC ([17]; 16 h): 6.25 µg/mL | MIC ([18]; 16 h): 0.1 µg/mL | MIC [19]: < 0.006 µg/mL | MIC ([20]; IFO3445, 16 h): 0.78 µg/mL

C=C(O/N=C(\C(=O)N[C@@H]1C(=O)N2C(C(=O)O)=C(CSc3nc(-c4ccc(OC(C)=O)c(OC(C)=O)c4)c(CC(=O)O)s3)CS[C@H]12)c1csc(N)n1)C(=O)O [Example 16, trisodium 3-[4-(3,4-diacetoxyphenyl)-5-carboxylatomethylthiazol-2-yl]thiomethyl-7β-[2-(2-aminothiazol-4-yl)-2-(1-carboxylato-1-vinyloxyimino)acetamido]-3-cephem-4-carboxylate (syn-isomer)]
MIC [1, 27]: < 0.006 µg/mL | MIC [2]: 0.78 µg/mL | MIC [3]: 0.78 µg/mL | MIC ([4]; 16 h): 0.78 µg/mL | MIC ([5]; AK109, 16 h): 0.78 µg/mL | MIC [6]: 0.1 µg/mL | MIC ([7]; NO.4, 16 h): 0.2 µg/mL | MIC ([8]; 16 h): 0.1 µg/mL | MIC [9, 23]: < 0.006 µg/mL | MIC [10]: 0.39 µg/mL | MIC ([11]; GN5407, 16 h): 0.05 µg/mL | MIC ([12]; IAM1184, 16 h): 0.05 µg/mL | MIC [13]: 1.56 µg/mL | MIC [14]: 0.05 µg/mL | MIC ([15]; AKR17, 16 h): 1.56 µg/mL | MIC ([16]; 16 h): 0.025 µg/mL | MIC [17, 28]: 12.5 µg/mL | MIC ([18]; 16 h): 0.2 µg/mL | MIC [19]: < 0.006 µg/mL | MIC ([20]; IFO3445, 16 h): 0.78 µg/mL

C=C(O/N=C(\C(=O)N[C@@H]1C(=O)N2C(C(=O)O)=C(COC(C)=O)CS[C@H]12)c1csc(N)n1)C(=O)O [Example 17, disodium 7β-[2-(2-aminothiazol-4-yl)-2-(1-carboxylato-1-vinyloxyimino)acetamido]cephalosporanate (syn-isomer)]
MIC ([1]; Burkholderia cepacia, 23, 16 h): 1.56 µg/mL | MIC [2]: 0.1 µg/mL | MIC [3]: 1.56 µg/mL | MIC [4, 22]: 3.12 µg/mL | MIC ([5]; AK109, 16 h): 6.25 µg/mL | MIC [6]: 0.05 µg/mL | MIC [7, 21]: 25 µg/mL | MIC ([8]; 16 h): 0.2 µg/mL | MIC [9, 23]: 0.0125 µg/mL | MIC [10]: 0.1 µg/mL | MIC ([11]; GN5407, 16 h): 0.025 µg/mL | MIC [12, 25]: 0.0125 µg/mL | MIC [13]: 0.1 µg/mL | MIC [14]: 0.025 µg/mL | MIC [15, 26]: > 100 µg/mL | MIC ([16]; 16 h): 0.1 µg/mL | MIC [17, 28]: 12.5 µg/mL | MIC [18, 22]: 3.12 µg/mL | MIC [19]: < 0.006 µg/mL | MIC ([20]; IFO3445, 16 h): 6.25 µg/mL

C=C(O/N=C(\C(=O)N[C@@H]1C(=O)N2C(C(=O)O)=C(CSc3nnc(C)s3)CS[C@H]12)c1csc(N)n1)C(=O)O [Example 18, disodium 7β-[2-(2-aminothiazol-4-yl)-2-11-carboxylato-1-vinyloxyimino)acetamido]-3-(5-methyl-1,3,4-thiadiazol-2-yl)thiomethyl-3-cephem-4-carboxylate (syn-isomer)]
MIC [1, 27]: 3.12 µg/mL | MIC [2]: 0.2 µg/mL | MIC [3]: 0.39 µg/mL | MIC [4, 22]: 3.12 µg/mL | MIC [5, 29]: 12.5 µg/mL | MIC [6]: 0.2 µg/mL | MIC [7, 21]: 100 µg/mL | MIC ([8]; 16 h): 0.39 µg/mL | MIC ([9]; PC1602, 16 h): 0.025 µg/mL | MIC [10]: 0.2 µg/mL | MIC [11, 24]: 0.0125 µg/mL | MIC ([12]; IAM1184, 16 h): 0.025 µg/mL | MIC [13]: 0.1 µg/mL | MIC [14]: 0.025 µg/mL | MIC [15, 26]: > 100 µg/mL | MIC [16, 22]: < 0.006 µg/mL | MIC [17, 28]: 3.12 µg/mL | MIC ([18]; 16 h): 0.78 µg/mL | MIC [19]: < 0.006 µg/mL | MIC ([20]; IFO3445, 10^6 CFU/ml, Mueller Hinton agar, 37° C., 16 hours, read-out: MIC): 12.5 µg/mL

C=C(O/N=C(\C(=O)N[C@@H]1C(=O)N2C(C(=O)O)=C(CSc3nnnn3C)CS[C@H]12)c1csc(N)n1)C(=O)O [Example 19, disodium 7β-[2-(2-aminothiazol-4-yl)-2-(1-carboxylato-1-vinyloxyimino)acetamido]-3-(1-methyl-1H-tetrazol-5-yl)thiomethyl-3-cephem-4-carboxylate (syn-isomer)]
MIC [1, 27]: 3.12 µg/mL | MIC [2]: 0.05 µg/mL | MIC [3]: 0.39 µg/mL | MIC ([4]; 16 h): 1.56 µg/mL | MIC ([5]; AK109, 16 h): 6.25 µg/mL | MIC [6]: 0.05 µg/mL | MIC [7, 21]: 100 µg/mL | MIC ([8]; 16 h): 0.2 µg/mL | MIC [9, 23]: 0.0125 µg/mL | MIC [10]: 0.1 µg/mL | MIC ([11]; GN5407, 16 h): 0.025 µg/mL | MIC [12, 25]: < 0.006 µg/mL | MIC [13]: 0.1 µg/mL | MIC [14]: 0.025 µg/mL | MIC [15, 26]: > 100 µg/mL | MIC [16, 22]: < 0.006 µg/mL | MIC ([17]; 16 h): 6.25 µg/mL | MIC ([18]; 16 h): 0.78 µg/mL | MIC [19]: < 0.006 µg/mL | MIC ([20]; IFO3445, 16 h): 6.25 µg/mL

C=C(O/N=C(\C(=O)N[C@@H]1C(=O)N2C(C(=O)O)=C(CSc3nnnn3CC(=O)O)CS[C@H]12)c1csc(N)n1)C(=O)O [Example 20, trisodium 7β-[2-(2-aminothiazol-4-yl)-2-(1-carboxylato-1-vinyloxyimino)acetamido]-3-(1-carboxylatomethyl-1H-tetrazol-5-yl)thiomethyl-3-cephem-4-carboxylate (syn-isomer)]
MIC [1, 27]: 3.12 µg/mL | MIC [2]: 0.39 µg/mL | MIC [3]: 1.56 µg/mL | MIC [4, 22]: 3.12 µg/mL | MIC [5, 29]: 12.5 µg/mL | MIC [6]: 0.39 µg/mL | MIC [7, 21]: 100 µg/mL | MIC ([8]; 16 h): 0.78 µg/mL | MIC ([9]; PC1602, 16 h): 0.1 µg/mL | MIC [10]: 0.39 µg/mL | MIC ([11]; GN5407, 16 h): 0.05 µg/mL | MIC ([12]; IAM1184, 16 h): 0.05 µg/mL | MIC [13]: 0.78 µg/mL | MIC [14]: 0.2 µg/mL | MIC [15, 26]: > 100 µg/mL | MIC [16, 22]: < 0.006 µg/mL | MIC [17, 28]: 25 µg/mL | MIC [18, 22]: 3.12 µg/mL | MIC [19]: < 0.006 µg/mL | MIC ([20]; IFO3445, 16 h): 6.25 µg/mL
